Laboratory results as given in ChEMBL document CHEMBL1142226, “Impact of physicochemical and structural properties on the pharmacokinetics of a series of alpha1L-adrenoceptor antagonists” (Drug Metab Dispos, 2007).

Tests used:
[1] = Metabolic stability in Sprague-Dawley rat bile assessed as drug remaining; assay type: ADME
[2] = Metabolic stability in Sprague-Dawley rat liver microsomes assessed as half life; assay type: ADME, Microsome
[3] = Metabolic stability in Sprague-Dawley rat assessed as hepatic extraction ratio; assay type: ADME, tissue-based; conditions: liver
Canis familiaris [4] = experiment: Unbound volume of distribution in Beagle dog at 0.5 mg/kg, iv; assay type: ADME, organism-based, Canis lupus familiaris; parameters: dose 0.5 mg/kg, route intravenous; conditions: in vivo
Canis familiaris [5] = experiment: Unbound plasma clearance in Beagle dog at 0.5 mg/kg, iv; assay type: ADME, organism-based, Canis lupus familiaris; parameters: dose 0.5 mg/kg, route intravenous; conditions: in vivo
[6] = Metabolic stability in human liver microsomes assessed as half life at 1 uM; assay type: ADME, Microsome
[7] = Volume of distribution in Beagle dog at 0.5 mg/kg, iv; assay type: ADME, organism-based, Canis lupus familiaris; parameters: dose 0.5 mg/kg, route intravenous; conditions: in vivo
[8] = Lipophilicity, log D in 0.1M potassium phosphate buffer at pH 7.4; assay type: physicochemical
[9] = Oral bioavailability in Beagle dog at 2 mg/kg; assay type: ADME, organism-based, Canis lupus familiaris; conditions: in vivo
[10] = Protein binding in Beagle dog plasma at 1 ug/ml; assay type: ADME, cell-free, Canis lupus familiaris; conditions: read-out: PPB (converted)
[11] = Plasma clearance in Beagle dog at 0.5 mg/kg, iv; assay type: ADME, organism-based, Canis lupus familiaris; parameters: dose 0.5 mg/kg, route intravenous
[12] = Dissociation constant, pKa of the compound; assay type: physicochemical
[13] = Elimination half life in Beagle dog at 0.5 mg/kg, iv; assay type: ADME, organism-based, Canis lupus familiaris; parameters: dose 0.5 mg/kg, route intravenous; conditions: in vivo
[14] = Oral absorption in Beagle dog at 2 mg/kg, po; assay type: ADME, organism-based, Canis lupus familiaris; parameters: dose 2 mg/kg, route oral; conditions: in vivo, read-out: Fabs
[15] = Fraction unbound in human liver microsomes at 1 uM; assay type: ADME, Microsome
[16] = Metabolic stability in Beagle dog liver microsomes assessed as half life at 1 uM; assay type: ADME, Canis lupus familiaris, Microsome
[17] = Fraction unbound in Beagle dog liver microsomes at 1 uM; assay type: ADME, Canis lupus familiaris, Microsome
Liver = experiment: Unbound intrinsic clearance in Beagle dog liver microsomes at 1 uM; assay type: ADME, Canis lupus familiaris, Microsome
Liver microsomes = experiment: Unbound intrinsic clearance in human liver microsomes at 1 uM; assay type: ADME, Microsome
[18] = Elimination half life in Sprague-Dawley rat at 3 mg/kg, iv; assay type: ADME, organism-based; parameters: dose 3 mg/kg, route intravenous; conditions: in vivo
[19] = Volume of distribution in Sprague-Dawley rat at 3 mg/kg, iv; assay type: ADME, organism-based; parameters: dose 3 mg/kg, route intravenous; conditions: in vivo
[20] = Protein binding in Sprague-Dawley rat plasma at 1 ug/ml; assay type: ADME, cell-free; conditions: read-out: PPB (converted)
Rattus norvegicus [21] = experiment: Unbound volume of distribution in Sprague-Dawley rat at 3 mg/kg, iv; assay type: ADME, organism-based; parameters: dose 3 mg/kg, route intravenous; conditions: in vivo
[22] = Drug uptake in Sprague-Dawley rat hepatocytes; assay type: ADME, cell-based, Hepatocyte
Rattus norvegicus [23] = experiment: Unbound plasma clearance in Sprague-Dawley rat at 3 mg/kg, iv; assay type: ADME, organism-based; parameters: dose 3 mg/kg, route intravenous; conditions: in vivo
Hepatocyte = experiment: Drug uptake in Sprague-Dawley rat hepatocytes assessed per 10^6 cells; assay type: ADME, cell-based
[24] = Plasma clearance in Sprague-Dawley rat at 3 mg/kg, iv; assay type: ADME, organism-based; parameters: dose 3 mg/kg, route intravenous
Homo sapiens = species on record: Homo sapiens; experiment: Protein binding in human plasma at 1 ug/ml; conditions: read-out: PPB (converted)
[25] = Oral bioavailability in Beagle dog at 0.5 mg/kg; assay type: ADME, organism-based, Canis lupus familiaris; conditions: in vivo
[26] = Oral absorption in Beagle dog at 0.5 mg/kg, po; assay type: ADME, organism-based, Canis lupus familiaris; parameters: dose 0.5 mg/kg, route oral; conditions: in vivo, read-out: Fabs
Rattus norvegicus [27] = experiment: Unbound volume of distribution in Sprague-Dawley rat at 0.5 mg/kg, iv; assay type: ADME, organism-based; parameters: dose 0.5 mg/kg, route intravenous; conditions: in vivo
[28] = Elimination half life in Sprague-Dawley rat at 4 mg/kg, po; assay type: ADME, organism-based; parameters: dose 4 mg/kg, route oral; conditions: in vivo
[29] = Cmax in Sprague-Dawley rat at 4 mg/kg, po; assay type: ADME, organism-based; parameters: dose 4 mg/kg, route oral; conditions: in vivo
[30] = Cmax in human at 0.86 mg/kg, po; assay type: ADME, organism-based; parameters: dose 0.86 mg/kg, route oral; conditions: in vivo
[31] = Tmax in human at 0.86 mg/kg, po; assay type: ADME, organism-based; parameters: dose 0.86 mg/kg, route oral; conditions: in vivo
[32] = Oral bioavailability in Beagle dog at 4 mg/kg; assay type: ADME, organism-based, Canis lupus familiaris; conditions: in vivo
[33] = Elimination half life in human at 0.86 mg/kg, po; assay type: ADME, organism-based; parameters: dose 0.86 mg/kg, route oral; conditions: in vivo
[34] = Elimination half life in Sprague-Dawley rat at 0.5 mg/kg, iv; assay type: ADME, organism-based; parameters: dose 0.5 mg/kg, route intravenous; conditions: in vivo
[35] = Tmax in Sprague-Dawley rat at 4 mg/kg, po; assay type: ADME, organism-based; parameters: dose 4 mg/kg, route oral; conditions: in vivo
[36] = Plasma clearance in Sprague-Dawley rat at 0.5 mg/kg, iv; assay type: ADME, organism-based; parameters: dose 0.5 mg/kg, route intravenous
[37] = Oral bioavailability in Sprague-Dawley rat at 4 mg/kg; assay type: ADME, organism-based; conditions: in vivo
Rattus norvegicus [38] = experiment: Unbound plasma clearance in Sprague-Dawley rat at 0.5 mg/kg, iv; assay type: ADME, organism-based; parameters: dose 0.5 mg/kg, route intravenous; conditions: in vivo
[39] = Oral absorption in Beagle dog at 4 mg/kg, po; assay type: ADME, organism-based, Canis lupus familiaris; parameters: dose 4 mg/kg, route oral; conditions: in vivo, read-out: Fabs
[40] = Volume of distribution in Sprague-Dawley rat at 0.5 mg/kg, iv; assay type: ADME, organism-based; parameters: dose 0.5 mg/kg, route intravenous; conditions: in vivo

Row | SMILES | Stability [1] [%] | half-life [2] [h] | hepatic extraction ratio [3] | Vd (Canis familiaris [4]) [L/kg] | CL (Canis familiaris [5]) [mL/min/kg] | half-life at 1 µM [6] [h] | Vd [7] [L/kg] | logD [8] | fraction unbound at 1 ug/ml [10] | clearance [11] [mL/min/kg] | pKa [12] | half-life [13] [h] | fraction unbound at 1 µM [15] | half-life at 1 µM [16] [h] | fraction unbound at 1 µM [17] | CL (Liver) [mL/min/kg] | CL (Liver microsomes) [mL/min/kg] | fraction unbound at 1 ug/ml [20] | fraction unbound at 1 ug/ml (Homo sapiens) | bioavailability [25] [%] | other results
1 | COc1cc2nc(N3CCCN(C(=O)N4CC(O)C(O)C4)CC3)nc(N3CC4C(CC(=O)OC(C)(C)C)C4C3)c2cc1OC (stereo not drawn) | 90 | > 2 | 0.75 |  |  |  |  |  |  |  |  |  |  |  |  |  |  |  |  |  | 
2 | COc1cc2nc(N3CCCN(C(=O)N4CCOCC4)CC3)nc(N)c2cc1-c1ccccn1 |  |  |  | 20 | 200 | 0.0833 | 4.3 | 2.1 | 0.22 | 23 | 6.6 | 2.3 | 0.637 | 0.233 | 0.791 | 162 | 96 |  |  |  | bioavailability [9]: 35%; Fa [14]: 65%
3 | COc1cc2c(cc1OC)CN(c1nc(N3CCCN(C(=O)N4CC(O)C(O)C4)CC3)nc3cc(OC)c(OC)cc13)CC2 (stereo not drawn) | 90 | > 2 | 0.7 | 100 | 470 |  | 10 | 4 | 0.1 | 47 | 6.2 | 2.4 |  |  |  |  |  | 0.05 | 0.03 |  | half-life [18]: 1.4 h; Vd [19]: 9.3 L/kg; Vd (Rattus norvegicus [21]): 186 L/kg; Km [22]: 6.5 µM; CL (Rattus norvegicus [23]): 2700 mL/min/kg; Vmax (Hepatocyte): 481 pmol/min; clearance [24]: 135 mL/min/kg
4 | COc1cc2nc(N3CCc4ncccc4C3)nc(N)c2c(-c2ncccn2)c1OC |  |  |  | 11 | 450 | 0.517 | 5.1 | 2.1 | 0.45 | 40 | 6.5 | 1.5 | 0.823 | 0.6 | 1 | 50 | 12 |  |  | 28 | Fa [26]: 100%
5 | COc1cc2nc(N3CCCN(C(=O)N4CCOCC4)CC3)cc(N)c2c(-c2ncco2)c1OC |  |  |  | 4.5 |  | 0.317 | 1 | 1.1 | 0.22 | 5.9 | 7.5 | 1.9 | 0.745 | 1.33 | 0.962 |  |  |  |  | 76 | Fa [26]: 86%
6 | COc1cc2nc(N3CCCN(C(=O)N4CCOCC4)CC3)cc(N)c2c(-c2ccc(F)cc2)c1OC |  |  |  | 96 | 536 | 0.1 | 4.8 | 1.8 | 0.04 | 15 | 8.5 | 6.3 | 0.331 | 0.5 | 0.602 | 100 | 154 | 0.08 | 0.06 |  | Vd (Rattus norvegicus [27]): 70 L/kg; half-life [28]: 2.8 h; Cmax [29]: 14 ng/mL; Cmax [30]: 63 ng/mL; Tmax [31]: 0.7 h; bioavailability [32]: 71%; half-life [33]: 12 h; half-life [34]: 1 h; Tmax [35]: 4 h; clearance [36]: 91 mL/min/kg; bioavailability [37]: 11%; CL (Rattus norvegicus [38]): 61250 mL/min/kg; Fa [39]: 100%; Vd [40]: 5.6 L/kg
